From patent publication US20120035069A1, “PROGNOSIS OF BREAST CANCER PATIENTS BY MONITORING THE EXPRESSION OF TWO GENES” (priority 2009, published 2012)

How the values were obtained:
MDA-MB-231 cells [1] = assay: Matrigel invasion (evasion) assay; assay type: cell-based, human; conditions: SB431542 5 μM; control MDA-MB-231 cells embedded in a drop of Matrigel
Description: (C) Assay for invasive activity of MDA-MB-231 cells embedded in a drop of matrigel. Panels show pictures of the same field at different time points. Dotted is lines highlight the edges of the drop. Only control cells are able to evade from the Matrigel® (arrows). This process is dependent on TGFβ signaling as it is blocked by treatment with the TGFβR1 inhibitor SB431542 (5 μM). MDA shp53 cells are impaired in matrix degradation and evasion.
For matrigel invasion assay shown in FIG. 2C, MDA-MB-231 and derivative cell lines were resuspended in drops ([…]) of Matrigel Growth Factor Reduced (BD Biosciences), diluted 1:2 in DMEM/F12.

MDA-MB-231 cells [2] = assay: Transwell migration assay; assay type: cell-based, human; conditions: control MDA-MB-231 cells; TGFβ1 5 ng/ml
Description: Transwell migration assay were performed in 24 well PET inserts (Falcon […] pore size) for migration assays. For MDA-MB-231, cells were plated in 10 cm dishes, transfected with siRNA and, after 8 hours, serum starved overnight. Then, 50000 or 100000 cells were plated in transwell inserts (at least 3 replicas for each sample) and either left untreated or treated with TGFβ1 (5 ng/ml). For H1299, cells is were plated in the transwell in 10% serum but then changed to 0.2% serum. For both cell lines, cells in the upper part of the transwells were removed with a cotton swab; migrated cells were fixed in PFA 4% and stained with Crystal Violet 0.5%. Filters were photographed and the total number of cells counted. Every experiment was repeated at least 3 times independently.

For NC(=O)c1ccc(-c2nc(-c3ccc4c(c3)OCO4)c(-c3ccccn3)[nH]2)cc1 [SB431542], the “evasion of cells from the Matrigel drop (TGFβ-dependent invasive activity)” value (MDA-MB-231 cells [1]) was “blocked”.

With “TGFβ: TGFβ provided from Peprotech, used to treat cells” the “migration through transwell in response to TGFβ” value (MDA-MB-231 cells [2]) was “potent promigratory response”.
